Laboratory results: US20220265618A1, “METHODS OF TREATING PROSTATE CANCER” (Celgene Quanticel Research, Inc., priority 2021, published 2022)

How the values were obtained:
VCaP cells = test: Proliferation assay (Cell Titer-Glo), VCaP cells; format: cell-based, human
Description: (§1) Proliferation was measured both at Day 0 and at Day 3, and percent of growth was determined using Luciferase assay.
(§2) Proliferation was measured both at Day 0 and at Day 6, and percent of growth was determined using Luciferase assay.
Cell culture: VCaP, LNCaP, 22Rv1, DU145 and PC3 cancer cell lines were obtained from ATCC. VCaP cells were cultured in DMEM media supplemented with 8% FBS, LNCaP cells were cultured in RPMI1640 media supplemented with 10% FBS, and PC3 cells were cultured in F12 K media supplemented with 10% FBS. LNCaP_AR CRISPRi gCTR, LNCaP_AR CRISPRi gTP53/RB1, and LNCaP_AR shTP53/RB1 cells were obtained from Charles L. Sawyers lab and were cultured in RPMI1640 supplemented with 10% FBS+2 mM L-Glutamine+1 mM Sodium Pyruvate+10 mM Hepes. DKO and TKO cells were obtained from David W. Goodrich lab and were cultured in DMEM media supplemented with 2.5% charcoal-stripped FBS+5 μg/mL of insulin/transferring/selenium (ITS)+10 μg/mL of bovine pituitary extract (BPE)+10 μg/mL of epidermal growth factor+1 μg/mL of cholera toxin. […]
Proliferation Assay: Cells were plated in a 384-well format and were allowed to adhere 24h before treatment. […] Cell proliferation was measured on the day of treatment (Day 0) and on Day 3 or Day 6 or Day 14 using Cell Titer-Glo reagent (Promega) according to the manufacturer's instructions. […]

[1] = system: KLK3 gene expression in VCaP cells; test: qPCR gene expression in VCaP cells: KLK3; format: cell-based, human; details: 400 nM, 48 h
Description: (§3) KLK3, TMPRSS2,MYC and HEXIM1 genes expression was determined by qPCR.

[2] = system: TMPRSS2 gene expression in VCaP cells; test: qPCR gene expression in VCaP cells: TMPRSS2; format: cell-based, human; details: 400 nM, 48 h
Description: as §3

[3] = system: MYC gene expression in VCaP cells; test: qPCR gene expression in VCaP cells: MYC; format: cell-based, human; details: 48 h
Description: as §3

[4] = system: HEXIM1 gene expression in VCaP cells; test: qPCR gene expression in VCaP cells: HEXIM1; format: cell-based, human; details: 48 h
Description: as §3

LNCaP cells = test: Proliferation assay (Cell Titer-Glo), LNCaP cells; format: cell-based, human
Description: as §1, §2
(§4) Cell culture: VCaP, LNCaP, 22Rv1, DU145 and PC3 cancer cell lines were obtained from ATCC. VCaP cells were cultured in DMEM media supplemented with 8% FBS, LNCaP cells were cultured in RPMI1640 media supplemented with 10% FBS, and PC3 cells were cultured in F12 K media supplemented with 10% FBS. LNCaP_AR CRISPRi gCTR, LNCaP_AR CRISPRi gTP53/RB1, and LNCaP_AR shTP53/RB1 cells were obtained from Charles L. Sawyers lab and were cultured in RPMI1640 supplemented with 10% FBS+2 mM L-Glutamine+1 mM Sodium Pyruvate+10 mM Hepes. DKO and TKO cells were obtained from David W. Goodrich lab and were cultured in DMEM media supplemented with 2.5% charcoal-stripped FBS+5 μg/mL of insulin/transferring/selenium (ITS)+10 μg/mL of bovine pituitary extract (BPE)+10 μg/mL of epidermal growth factor+1 μg/mL of cholera toxin. DKO cells have been derived from intact mice so were cultured also in presence of 1nM R1881.
(§5) Proliferation Assay: Cells were plated in a 384-well format and were allowed to adhere 24h before treatment. Drugs were titrated 1:3 from 10 μM to […] with 9 doses in triplicate. Cell proliferation was measured on the day of treatment (Day 0) and on Day 3 or Day 6 or Day 14 using Cell Titer-Glo reagent (Promega) according to the manufacturer's instructions. Cell growth normalized to the DMSO vehicle control and to Day 0 was fitted by nonlinear regression using GraphPad Prism 7.03 (GraphPad Software, Inc.).

[5] = system: LNCaP cells overexpressing AR (LNCaP_AR); test: Proliferation assay (Cell Titer-Glo), LNCaP_AR cells; format: cell-based, human
Description: as §1, §2
(§6) Proliferation was measured both at Day 0 and at Day 14, and percent of growth was determined using Luciferase assay.
as §4, §5

22Rv1 cells = test: Proliferation assay (Cell Titer-Glo), 22Rv1 cells; format: cell-based; details: Homo sapiens, 22Rv1, 72 h; 3 days (FIG. 6); read-out: IC50, proliferation of 22RV.1 cells
Description: as §1, §4
(§7) Proliferation Assay: Cells were plated in a 384-well format and were allowed to adhere 24h before treatment. Drugs were titrated 1:3 from 10 μM to 0.1 nM with 9 doses in triplicate. Cell proliferation was measured on the day of treatment (Day 0) and on Day 3 or Day 6 or Day 14 using Cell Titer-Glo reagent (Promega) according to the manufacturer's instructions. […]

[6] = system: KLK3 gene expression in 22Rv1 cells; test: qPCR gene expression in 22Rv1 cells: KLK3; format: cell-based, human; details: 22RV.1 cells, 48 hours
Description: as §3

[7] = system: TMPRSS2 gene expression in 22Rv1 cells; test: qPCR gene expression in 22Rv1 cells: TMPRSS2; format: cell-based, human; details: 22RV.1 cells, 48 hours
Description: as §3

[8] = system: MYC gene expression in 22Rv1 cells; test: qPCR gene expression in 22Rv1 cells: MYC; format: cell-based, human; details: 22RV.1 cells, 48 hours
Description: as §3

[9] = system: HEXIM1 gene expression in 22Rv1 cells; test: qPCR gene expression in 22Rv1 cells: HEXIM1; format: cell-based, human; details: 22RV.1 cells, 400 nM, 48 hours
Description: as §3

[10] = system: LNCaP_AR CRISPRi guide TP53/RB1 cells; test: Proliferation assay (Cell Titer-Glo), LNCaP_AR CRISPRi TP53/RB1 cells; format: cell-based, human
Description: as §6, §4, §5

[11] = system: LNCaP_AR shTP53/RB1 cells; test: Proliferation assay (Cell Titer-Glo), LNCaP_AR shTP53/RB1 cells; format: cell-based, human
Description: as §6, §4, §5

[12] = system: TKO cells (deleted for Pten, Rb1, and Trp53); test: Proliferation assay (Cell Titer-Glo), TKO cells; format: cell-based, mouse
Description: as §2, §4, §7

[13] = system: DKO cells (deleted for Pten and Rb1); test: Proliferation assay (Cell Titer-Glo), DKO cells; format: cell-based, mouse
Description: as §6, §4, §7

DU145 cells = test: Proliferation assay (Cell Titer-Glo), DU145 cells; format: cell-based, human; details: 3 days (FIG. 10)
Description: as §1, §4, §7

PC3 cells = test: Proliferation assay (Cell Titer-Glo), PC3 cells; format: cell-based, human; details: 3 days (FIG. 11)
Description: as §1, §4, §7

[14] = system: Neuroendocrine prostate cancer models; test: Proliferation assay, all Neuroendocrine prostate cancer models tested (summary); format: cell-based; details: summary over all NEPC models
Description: as §4, §7

## Cn1cc(-c2cc(S(C)(=O)=O)ccc2OCC2CC2)c2ccccc2c1=O [Compound A, 4-[2-(cyclopropylmethoxy)-5-methylsulfonylphenyl]-2-methylisoquinolin-1-one]
VCaP cells; at 0.3 μM Compound A, 3 and 6 days (FIGS. 1A-1B)
  growth arrest of VCaP cell proliferation: 100%
VCaP cells; at the highest concentration (FIGS. 1A-1B)
  cytotoxic effects in VCaP cells: cytotoxic effects
[1]
  KLK3 downregulation as compared to DMSO: 80.2%
[2]
  TMPRSS2 downregulation as compared to DMSO: 26.3%
[3]; 40 nM
  reduction in MYC expression: 18.9%
[3]; 400 nM
  MYC downregulation: 81.1%
[4]; 40 nM
  HEXIM1 upregulation as compared to DMSO: 121.1%
[4]; 400 nM
  HEXIM1 upregulation as compared to DMSO: 754%
LNCaP cells; Homo sapiens, LNCaP, 144 h, prolonged treatment (6 days) (FIG. 3B), read-out: half maximal inhibitory concentration (IC50), LNCaP cells
  IC50: 490 nM
LNCaP cells; after 3 days of treatment (FIG. 3A)
  growth arrest of LNCaP cells: 100%
LNCaP cells; prolonged treatment (6 days)
  cell death in LNCaP cells: induced cell death
[5]; 3 days (FIG. 4A)
  growth arrest of LNCaP_AR cells: complete growth arrest
[5]; highest dose, longer treatment (6 days, FIG. 4B)
  cytotoxicity in LNCaP_AR cells: cytotoxicity
[5]; treated Day 0 and Day 6, total 14 days (FIG. 5)
  concentration causing cell death in LNCaP_AR cells on re-treatment: > 1 µM
22Rv1 cells
  IC50: 200 nM
[6]; 40 nM
  KLK3 downregulation: 98.8%
[6]; 400 nM
  KLK3 downregulation: 99.51%
[7]; 40 nM
  TMPRSS2 reduction: 93.2%
[7]; 400 nM
  TMPRSS2 reduction: 95.3%
[8]; 40 nM
  MYC downregulation: 64%
[8]; 400 nM
  MYC downregulation: 93.9%
[9]
  HEXIM1 induction: 31%
[10]; Homo sapiens, LNCaP/AR, treated Day 0 and Day 6, total 14 days (FIG. 8A)
  IC50: 220 nM
[10]; summary statement
  cell death in LNCaP_AR cells depleted for TP53 and RB1 (CRISPRi): induced cell death
[10]; treated Day 0 and Day 6, total 14 days (FIG. 8A)
  growth arrest of LNCaP_AR CRISPRi guide TP53/RB1 cells: 100%
[11]; Homo sapiens, LNCaP/AR, treated Day 0 and Day 6, total 14 days (FIG. 8B)
  IC50: 60 nM
[11]; summary statement
  cell death in LNCaP_AR cells depleted for TP53 and RB1 (shRNA): induced cell death
[11]; treated Day 0 and Day 6, total 14 days (FIG. 8B)
  growth arrest of LNCaP_AR shTP53/RB1 cells: 100%
[12]; at 3 uM, treated Day 0 and Day 3, total 6 days (FIG. 9A)
  growth arrest of TKO cells: 100%
[12]; at the highest concentrations (FIG. 9A)
  cytotoxic activity in TKO cells: cytotoxic activity
[13]; at 1 uM, treated Day 0 and Day 6, total 14 days (FIG. 9B)
  growth arrest of DKO cells: 100%
[13]; at the highest concentrations (FIG. 9B)
  cytotoxic activity in DKO cells: cytotoxic activity
DU145 cells
  reduction of DU145 proliferation: 76%
DU145 cells; Homo sapiens, DU-145, 72 h
  IC50: 680 nM
PC3 cells
  reduction of PC3 proliferation: 80%
PC3 cells; Homo sapiens, PC-3, 72 h
  IC50: 550 nM
[14]
  reduction of cell proliferation in all Neuroendocrine prostate cancer models tested: > 76%
